Assay results reported in patent publication US11453671B2, “Pyrazolopyrimidine inhibitors of JAK kinases and uses thereof” (Genentech, Inc., priority 2020, dated 2022).
Where two headings read alike, the source gives them in different places.

Key:
[1] = biological target: T1, recombinant human JAK1 kinase domain protein (Residues 854-1154) (Homo sapiens, UniProt P23458); assay: JAK1 biochemical assay (microfluidic mobility shift, peptide phosphorylation); details: 25 μM ATP, 1 nM total JAK1; read-out: Enzyme JAK1 Ki
T1 construct: human JAK1 kinase domain protein (Residues 854-1154); purchased Proteros Biostructures GmbH (Martinsried, Germany); host or cells: insect cells
T1 sequence (P23458 854-1154): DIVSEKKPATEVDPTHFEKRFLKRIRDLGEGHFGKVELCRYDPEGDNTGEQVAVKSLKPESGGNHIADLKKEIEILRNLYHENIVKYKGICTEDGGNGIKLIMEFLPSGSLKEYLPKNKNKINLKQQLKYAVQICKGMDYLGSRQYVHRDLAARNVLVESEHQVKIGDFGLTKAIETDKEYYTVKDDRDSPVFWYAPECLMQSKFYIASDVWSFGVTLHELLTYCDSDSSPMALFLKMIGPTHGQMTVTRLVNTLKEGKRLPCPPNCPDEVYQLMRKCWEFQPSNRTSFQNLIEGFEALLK
Source text: JAK1 and JAK2 Biochemical Assays

[2] = system: JAK1: IL-13-stimulated STAT6 phosphorylation in BEAS-2B cells; assay: P-STAT6 BEAS-2B+IL-13 Cell Assay; format: cell-based, human; details: IL-13 stimulation, read-out: Cellular JAK1 PSTAT6 BEAS2B + IL13 IC50
Description: P-STAT6 BEAS-2B+IL-13 Cell Assay
In order to study the effect of JAK1 inhibitors in a cell line that is relevant to the cell biology of human asthma, an IL-13-stimulated STAT6 phosphorylation assay in the human lung bronchial epithelial BEAS-2B cell line was developed.
BEAS-2B cells (ATCC® CRL-9609™) were grown in Bronchial Epithelial Growth Medium (BEGM) (Lonza Catalog No. CC-3170; Walkersville, Md.; or PromoCell Catalog No. C-21060; Heidelberg, Germany). Test compound stock solutions (0.5 mM in DMSO) were serially diluted 1:2 in DMSO to generate a 10-point concentration curve (at 500×test concentration), which was further diluted by a 50-fold dilution step in BEGM to generate a 10× concentration curve (in 2% DMSO). Cells were plated at 100,000 cells/well in 200 μL of BEGM in 96-well plates and incubated for 48 hours at 37° C. in a humidified incubator. Medium was aspirated from the cells and replaced with 70 μL of fresh BEGM. Diluted test compound (10 μL; or 2% DMSO in assay medium) was added to the cells, and the plates were incubated for 1 hour at 37° C. in a humidified incubator. Twenty μL of 250 ng/mL human recombinant IL-13 (Bio Techne Catalog No. 213-ILB) was then added to the cells and incubated for 15 minutes at 37° C. Medium was aspirated from the cells and 60 μL of ice-cold 1×cell lysis buffer (Cell Signaling Technologies; Catalog No. 9803S) containing 1 mM PMSF was added to the cells. Assay plates were incubated at −80° C. for at least 1 hour. P-STAT6 was measured by coating GAR plates (MSD; Catalog No. L45RA-1) with rabbit anti-human total STAT6 antibody (Cell Signaling Technologies; Catalog No. 9362S), incubating the cell lysates in the coated plates overnight at 4° C., and then detecting with mouse anti-phospho-STAT6 (Tyr641) Clone 16E12 antibody (Millipore; Catalog No. 05-590, custom labeled by MSD with SULFO-tag) using standard MSD plate processing, washing, and detection protocols. Plates were read on the MESO SECTOR S600. Data Analysis
Data analysis was performed by subtracting negative control values from all wells and determining percent of control using the positive control values; the IC50 was determined with a four-parameter logistic fit model as shown in Equation 4.

[3] = biological target: Recombinant human JAK2 kinase domain protein (Residues 812-1132) (Homo sapiens, UniProt O60674); assay: JAK2 biochemical assay (microfluidic mobility shift, peptide phosphorylation); details: Enzyme JAK2 Ki (nM), 25 μM ATP, 0.2 nM total JAK2
Chain of Recombinant human JAK2 kinase domain protein (Residues 812-1132) (O60674 812-1132): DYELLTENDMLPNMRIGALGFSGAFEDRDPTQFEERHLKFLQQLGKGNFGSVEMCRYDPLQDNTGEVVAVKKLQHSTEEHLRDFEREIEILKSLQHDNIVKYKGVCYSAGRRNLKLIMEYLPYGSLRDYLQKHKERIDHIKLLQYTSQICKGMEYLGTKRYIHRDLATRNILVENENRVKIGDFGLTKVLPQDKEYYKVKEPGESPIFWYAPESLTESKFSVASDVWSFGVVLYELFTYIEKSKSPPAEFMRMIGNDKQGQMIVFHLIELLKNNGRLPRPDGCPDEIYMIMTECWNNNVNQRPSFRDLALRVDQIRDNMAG
Description: The in vitro biochemical assays quantify JAK-catalyzed phosphorylation of a synthetic peptide, as detected using a LabChip® EZ Reader II microfluidic mobility shift instrument (PerkinElmer; Waltham, Mass.). […] Y-1B is fluorescently labeled on the N-terminus with 5-FAM (5-carboxyfluorescein) and contains a single tyrosine residue (Y) that can be phosphorylated by JAK activity. The substrate peptide stock is prepared in DMSO at 5 mM.
In each titration experiment, test compound was tested in duplicate at each of the twelve concentrations. Blank reactions contained ATP, peptide, and DMSO, but no JAK or test compound, whereas uninhibited control reactions contained ATP, peptide, JAK, and DMSO, but no test compound.
Peptide plus ATP mixture (24 μL) was added to 1 μL of test compound in DMSO (or DMSO alone). The reactions were initiated by adding 25 μL of JAK enzyme to the inhibitor/peptide/ATP mixture before thoroughly mixing the resultant solution. Reactions were incubated at room temperature (22° C.-23° C.) in a final volume of 50 μL per well in 384-well plates.
In each reaction, the residual Y-1B substrate and the phospho-peptide product generated were separated using the EZ Reader II instrument. Electrophoretic separation of molecules of product from molecules of substrate was achieved using downstream and upstream voltages of −500 and −2600 V, respectively, at an operating pressure of −1.3 psi.
The extent (or percent) of conversion of substrate to product was calculated from the corresponding peak heights in the electropherogram using HTS Well Analyzer software, Version 5.2 (PerkinElmer), and the following equation (Equation 1): % conversion=[P÷(S+P)]×100 Equation 1 where S and P represent the peak heights of the substrate and product, respectively. After any baseline signal from blank wells containing no JAK was subtracted from the signal of all test wells, the % conversion data were converted to fractional activity as shown in Equation 2, where vi and vo are the % conversion in the presence and absence of test compound, respectively.

Row | Ki [1] [nM] | Ki [3] [nM] | SMILES | IC50 ([2]; Homo sapiens, BEAS-2B) [nM] | IC50 [2] [nM]
1 | 1.1 | 0.62 | CS(=O)(=O)c1ccc(OC(F)F)c(-c2nn(C3CCOC3=O)cc2NC(=O)c2cnn3cccnc23)c1 (single isomer, unassigned) [Example 32, N-[3-[2-(difluoromethoxy)-5-methylsulfonyl-phenyl]-1-(2-oxotetrahydrofuran-3-yl)pyrazol-4-yl]pyrazolo[1,5-a]pyrimidine-3-carboxamide] | 120 | 
2 | 2 | 0.66 | CN1CC(S(=O)(=O)c2ccc(OC(F)F)c(-c3nn(C)cc3NC(=O)c3cnn4cccnc34)c2)C1 [Example 3, N-[3-[2-(difluoromethoxy)-5-(1-methylazetidin-3-yl)sulfonyl-phenyl]-1-methyl-pyrazol-4-yl]pyrazolo[1,5-a]pyrimidine-3-carboxamide] | 58 | 
3 | 1.2 | 0.21 | CN1CCN(CCn2cc(S(=O)(=O)c3ccc(OC(F)F)c(-c4nn(C)cc4NC(=O)c4cnn5cccnc45)c3)cn2)CC1 [Example 54, N-[3-[2-(difluoromethoxy)-5-[1-[2-(4-methylpiperazin-1-yl)ethyl]pyrazol-4-yl]sulfonyl-phenyl]-1-methyl-pyrazol-4-yl]pyrazolo[1,5-a]pyrimidine-3-carboxamide] | 140 | 
4 | 0.58 | 0.37 | N#CCn1cc(NC(=O)c2cnn3cccnc23)c(-c2cc(S(=O)(=O)C(F)F)ccc2OC(F)F)n1 [Example 29, N-[1-(cyanomethyl)-3-[2-(difluoromethoxy)-5-(difluoromethylsulfonyl)phenyl]pyrazol-4-yl]pyrazolo[1,5-a]pyrimidine-3-carboxamide] | 25 | 
5 | 1.4 | 0.6 | Cn1cc(NC(=O)c2cnn3cccnc23)c(-c2cc(S(=O)(=O)C3CNC3)ccc2OC(F)F)n1 [Example 4, N-[3-[5-(azetidin-3-ylsulfonyl)-2-(difluoromethoxy)phenyl]-1-methyl-pyrazol-4-yl]pyrazolo[1,5-a]pyrimidine-3-carboxamide] | 180 | 
6 | 1.5 | 0.53 | Cn1cc(NC(=O)c2cnn3cccnc23)c(-c2cc(S(=O)(=O)C(CF)CF)ccc2OC(F)F)n1 [Example 39, N-[3-[2-(difluoromethoxy)-5-[2-fluoro-1-(fluoromethyl)ethyl]sulfonyl-phenyl]-1-methyl-pyrazol-4-yl]pyrazolo[1,5-a]pyrimidine-3-carboxamide] | 230 | 
7 | 0.94 | 0.19 | Cn1cc(NC(=O)c2cnn3cccnc23)c(-c2cc(S(=O)(=O)c3cnn(CCN4CCC4)c3)ccc2OC(F)F)n1 [Example 53, N-[3-[5-[1-[2-(azetidin-1-yl)ethyl]pyrazol-4-yl]sulfonyl-2-(difluoromethoxy)phenyl]-1-methyl-pyrazol-4-yl]pyrazolo[1,5-a]pyrimidine-3-carboxamide] | 50 | 
8 | 1 | 0.33 | CC(O)C(C)S(=O)(=O)c1ccc(OC(F)F)c(-c2nn(C)cc2NC(=O)c2cnn3cccnc23)c1 (single isomer, unassigned) [Example 70, N-[3-[2-(difluoromethxoy)-5-(2-hydroxy-1-methyl-propyl)sulfonyl-phenyl]-1-methyl-pyrazol-4-yl]pyrazolo[1,5-a]pyrimidine-3-carboxamide] |  | 75
9 | 0.82 | 0.48 | Cn1cc(NC(=O)c2cnn3cccnc23)c(-c2cc(S(=O)(=O)CCN)ccc2OC(F)F)n1 [Example 8, N-[3-[5-(2-aminoethylsulfonyl)-2-(difluoromethoxy)phenyl]-1-methyl-pyrazol-4-yl]pyrazolo[1,5-a]pyrimidine-3-carboxamide] | 92 | 
10 | 0.84 | 0.38 | Cn1cc(NC(=O)c2cnn3cccnc23)c(-c2cc(S(N)(=O)=O)ccc2OC(F)F)n1 [Example 31, N-[3-[2-(difluoromethoxy)-5-sulfamoyl-phenyl]-1-methyl-pyrazol-4-yl]pyrazolo[1,5-a]pyrimidine-3-carboxamide] | 51 | 
11 | 0.57 | 0.54 | CN1CCCC1CCn1cc(S(=O)(=O)c2ccc(OC(F)F)c(-c3nn(C)cc3NC(=O)c3cnn4cccnc34)c2)cn1 (stereo in doubt) [Example 57, N-[3-[2-(difluoromethoxy)-5-[1-[2-[(2S)-1-methylpyrrolidin-2-yl]ethyl]pyrazol-4-yl]sulfonyl-phenyl]-1-methyl-pyrazol-4-yl]pyrazolo[1,5-a]pyrimidine-3-carboxamide] | 54 | 
12 | 0.48 | 0.24 | Cn1cc(NC(=O)c2cnn3cccnc23)c(-c2cc(S(=O)(=O)c3cncnc3)ccc2OC(F)F)n1 [Example 67, N-[3-[2-(difluoromethoxy)-5-pyrimidin-5-ylsulfonyl-phenyl]-1-methyl-pyrazol-4-yl]pyrazolo[1,5-a]pyrimidine-3-carboxamide] | 25 | 
13 | 1.5 | 0.65 | CN1CCC(S(=O)(=O)c2ccc(OC(F)F)c(-c3nn(C)cc3NC(=O)c3cnn4cccnc34)c2)C1 (single isomer, unassigned) [Example 20, N-[3-[2-(difluoromethoxy)-5-(1-methylpyrrolidin-3-yl)sulfonyl-phenyl]-1-methyl-pyrazol-4-yl]pyrazolo[1,5-a]pyrimidine-3-carboxamide] |  | 65
14 | 0.39 | 0.21 | N#CCn1cc(NC(=O)c2cnn3cccnc23)c(-c2cc(S(=O)(=O)C3COC3)ccc2OC(F)F)n1 [Example 51, N-[1-(cyanomethyl)-3-[2-(difluoromethoxy)-5-(oxetan-3-ylsulfonyl)phenyl]pyrazol-4-yl]pyrazolo[1,5-a]pyrimidine-3-carboxamide] | 100 | 
15 | 2.2 | 1 | CN1CC(n2cc(NC(=O)c3cnn4cccnc34)c(-c3cc(S(=O)(=O)C4CC4)ccc3OC(F)F)n2)C1 [Example 52, N-[3-[5-cyclopropylsulfonyl-2-(difluoromethoxy)phenyl]-1-(1-methylazetidin-3-yl)pyrazol-4-yl]pyrazolo[1,5-a]pyrimidine-3-carboxamide] | 96 | 
16 | 2 | 0.93 | CN1C=Cc2ccc(S(=O)(=O)c3ccc(OC(F)F)c(-c4nn(C)cc4NC(=O)c4cnn5cccnc45)c3)cc2C1 [Example 62, N-[3-[2-(difluoromethoxy)-5-[(2-methyl-1H-isoquinolin-7-yl)sulfonyl]phenyl]-1-methyl-pyrazol-4-yl]pyrazolo[1,5-a]pyrimidine-3-carboxamide] | 150 | 
17 | 0.59 | 0.26 | CC(=O)N1CC(S(=O)(=O)c2ccc(OC(F)F)c(-c3nn(C)cc3NC(=O)c3cnn4cccnc34)c2)C1 [Example 27, N-[3-[5-(1-acetylazetidin-3-yl)sulfonyl-2-(difluoromethoxy)phenyl]-1-methyl-pyrazol-4-yl]pryazolo[1,5-a]pyrimidine-3-carboxamide] | 99 | 
18 | 0.72 | 0.24 | Cn1cnc(S(=O)(=O)c2ccc(OC(F)F)c(-c3nn(C)cc3NC(=O)c3cnn4cccnc34)c2)c1 [Example 65, N-[3-[2-(difluoromethoxy)-5-(1-methylimidazol-4-yl)sulfonyl-phenyl]-1-methyl-pyrazol-4-yl]pyrazolo[1,5-a]pyrimidine-3-carboxamide] | 72 | 
19 | 1.4 | 0.46 | CC(O)C(C)S(=O)(=O)c1ccc(OC(F)F)c(-c2nn(C)cc2NC(=O)c2cnn3cccnc23)c1 (single isomer, unassigned) [Example 71, N-[3-[2-(difluoromethoxy)-5-(2-hydroxy-1-methyl-propyl)sulfonyl-phenyl]-1-methyl-pyrazol-4-yl]pyrazolo[1,5-a]pyrimidine-3-carboxamide] |  | 110
